Patent US20160151285A1, “METHOD TO PRODUCE SLOW RELEASE DELIVERY CARRIER LIPID NANOPARTICLES OF DIFFERENT LOG P VALUE” (University of Malaya, priority 2014, published 2016)

What was measured:
[1] = In vitro release study, Automated Franz Diffusion Cell System, Higuchi model fit; format: physicochemical; settings: 37° C., PBS pH7.4, 24 hours, regenerated cellulose membrane
Protocol: Four different samples were run in 6 diffusate chamber volume of 4 ml […] PBS solution at pH7.4, with 0.6362 cm^2 effective diffusion area, under 400 rpm stirring and circulation of water bath at 37±1° C. throughout the experiments. Approximately 500 mg of each sample was loaded on the regenerated cellulose membrane surface (5000 Da molecular weight cut-off) in the retentate compartment, which was pre-soaked overnight, to be evaluated for 24 hours. At predetermined intervals, samples were withdrawn to be determined spectrophotometrically for the drug content and replaced with fresh receiving medium. The calculations are done based on average of six measurements from six different retentate compartments.

[2] = log P of the compound used / encapsulated; cited from earlier work

Row | SMILES | Slope (release rate, Higuchi Model) ([1]; In NLC (NLC-1, NLC-2, NLC-3)) | Slope (release rate, Higuchi Model) ([1]; In cream (C1, C2, C3)) | Slope (release rate, Higuchi Model) ([1]; In solution (A1, A2, A3)) | Log P [2]
1 | CN(C)c1ccc2cc3ccc(N(C)C)cc3nc2c1 [Acridine orange, acridine orange] | 0.43 | 4.12 | 19.15 | –
2 | O=S(=O)(O)c1cc2cc(S(=O)(=O)O)c(N=Nc3ccccc3[As](=O)(O)O)c(O)c2c(O)c1N=Nc1ccccc1[As](=O)(O)O [Arsenazo III, arsenazo III] | 8.93 | 11.48 | 19.25 | 0.49
